Measurements from paper PMC11855827, “High-Throughput Screening of Five Compound Libraries for Anthelmintic Activity and Toxicity Leads to the Discovery of Two Flavonoid Compounds” (International Journal of Molecular Sciences, 2025).
Like-named read-outs stand apart in the source and are kept apart here.

Tested on: C. elegans
Assay: microbe, parasite or virus in culture
Conditions: Caenorhabditis elegans
[1] = 0 h, read-out: Percentage of motility inhibition 0 h, Table S2, C. elegans SS assay, 110 μM, 0 h, averages of 4 data points
[2] = 24 h, read-out: Percentage of motility inhibition 24 h, Table S2, C. elegans SS assay, 110 μM, 24 h, averages of 4 data points

With `COc1cc(O)c(C(=O)/C=C/c2ccc(O)cc2)c(OC)c1` [Flavokawain C] the inhibition at 110 µM [1] was 18% and the inhibition at 110 µM [2] was 20%.
`O=c1cc(-c2ccccc2)oc2ccccc12` [Flavone] showed an inhibition at 110 µM [1] of 0% and an inhibition at 110 µM [2] of 5%.
For `O=c1c(O)c(-c2ccccc2)oc2ccccc12` [Flavonol], the inhibition at 110 µM [1] was 2% and the inhibition at 110 µM [2] was 10%.
In the case of `CCC(=O)c1c(O)cc(O)cc1O` [Flopropione], the inhibition at 110 µM [1] is reported as 40% and the inhibition at 110 µM [2] is reported as 18%.
In the case of `CS(=O)(=O)c1ccc([C@@H](O)[C@@H](CF)NC(=O)C(Cl)Cl)cc1` [Florfenicol], the inhibition at 110 µM [1] is reported as 29% and the inhibition at 110 µM [2] is reported as 9%.
For `OC(Cn1cncn1)(Cn1cncn1)c1ccc(F)cc1F` [Fluconazole], the inhibition at 110 µM [1] was 7% and the inhibition at 110 µM [2] was 12%.
`Nc1[nH]c(=O)ncc1F` [Flucytosine] gave an inhibition at 110 µM [1] of 23% and an inhibition at 110 µM [2] of 32%.
`CC1CCc2cc(F)cc3c(=O)c(C(=O)O)cn1c23` (stereo not shown) [Flumequine] was tested, and the inhibition at 110 µM [1] was 20% and the inhibition at 110 µM [2] was 21%.
Compound `Nc1nc(=O)c2nc(CNc3ccc(C(=O)N[C@@H](CCC(=O)O)C(=O)O)cc3)cnc2[nH]1` [Folic acid] has an inhibition at 110 µM [1] of 23% and an inhibition at 110 µM [2] of 17%.
Compound `COc1ccc(-c2coc3cc(O)ccc3c2=O)cc1` [Formononetin] has an inhibition at 110 µM [1] of 6% and an inhibition at 110 µM [2] of 31%.
In the case of `C=C[C@@]1(C)CC(=O)[C@]2(O)[C@@]3(C)[C@@H](O)CCC(C)(C)[C@@H]3[C@H](O)[C@H](OC(C)=O)[C@@]2(C)O1` [Forskolin], the inhibition at 110 µM [1] is reported as 0% and the inhibition at 110 µM [2] is reported as 2%.
With `O=P(O)(O)OC(Cn1cncn1)(Cn1cncn1)c1ccc(F)cc1F` [Fosfluconazole] the inhibition at 110 µM [1] was 17% and the inhibition at 110 µM [2] was 0%.
Work on `CC1=C2C(=O)O[C@@H](c3ccoc3)[C@]2(C)CCC1` [Fraxinellone] yielded an inhibition at 110 µM [1] of 0% and an inhibition at 110 µM [2] of 6%.
`O=C(CO)[C@@H](O)[C@H](O)[C@H](O)CO` [Fructose] was tested, and the inhibition at 110 µM [1] was 0% and the inhibition at 110 µM [2] was 3%.
Compound `Cc1cccc(C)c1NC(=O)c1ccccc1C(=O)O` [Ftaxilide] has an inhibition at 110 µM [1] of 18% and an inhibition at 110 µM [2] of 10%.
For `O=C(O)/C=C/C(=O)O` [Fumaric acid], the inhibition at 110 µM [1] was 8% and the inhibition at 110 µM [2] was 5%.
In the case of `O=C1CN(/N=C/C=C/c2ccc([N+](=O)[O-])o2)C(=O)N1` [Furagin], the inhibition at 110 µM [1] is reported as 6% and the inhibition at 110 µM [2] is reported as 0%.
Compound `O=C1OCCN1/N=C/c1ccc([N+](=O)[O-])o1` [Furazolidone] has an inhibition at 110 µM [1] of 21% and an inhibition at 110 µM [2] of 7%.
In the case of `CC(=O)O[C@H]1C[C@@]2(C)[C@@H](C[C@@H](O)[C@H]3[C@@]4(C)CC[C@@H](O)[C@@H](C)[C@@H]4CC[C@@]32C)/C1=C(\CCC=C(C)C)C(=O)O` [Fusidic acid], the inhibition at 110 µM [1] is reported as 0% and the inhibition at 110 µM [2] is reported as 1%.
With `CC(C)OC(=O)[C@H](C)N[P@](=O)(CO[C@H](C)Cn1cnc2c(N)ncnc21)Oc1ccccc1` [GS‐7340] the inhibition at 110 µM (0 h, read-out: Percentage of motility inhibition 0 h) was 11% and the inhibition at 110 µM (24 h, read-out: Percentage of motility inhibition 24 h) was 1%.
`O=c1c(O)c(-c2ccccc2)oc2cc(O)cc(O)c12` [Galangin] gave an inhibition at 110 µM [1] of 10% and an inhibition at 110 µM [2] of 8%.
With `O=C(O)c1cc(O)c(O)c(O)c1` [Gallic acid] the inhibition at 110 µM [1] was 66% and the inhibition at 110 µM [2] was 34%.
`CC(C)=CCC/C(C)=C/Cc1c(O)c(CC=C(C)C)c2c(c1O)C(=O)C1=C[C@@H]3C[C@H]4C(C)(C)O[C@@](C/C=C(/C)C(=O)O)(C3=O)[C@@]14O2` [Gambogenic acid] showed an inhibition at 110 µM [1] of 1% and an inhibition at 110 µM [2] of 8%.
`Nc1nc(O)c2ncn(COC(CO)CO)c2n1` [Ganciclovir] was tested, and the inhibition at 110 µM [1] was 22% and the inhibition at 110 µM [2] was 5%.
Work on `C/C(C=O)=C\CC[C@@H](C)[C@H]1CC[C@@]2(C)C3=CC[C@H]4C(C)(C)C(=O)CC[C@]4(C)C3=CC[C@]12C` [Ganoderal A] yielded an inhibition at 110 µM [1] of 7% and an inhibition at 110 µM [2] of 25%.
Compound `C/C(=C\C(=O)CC(C)C(=O)O)[C@H]1C[C@H](O)[C@@]2(C)C3=C(C(=O)C[C@]12C)[C@@]1(C)CCC(=O)C(C)(C)[C@@H]1C[C@@H]3O` (stereo partly shown) [Ganoderenic acid A] has an inhibition at 110 µM [1] of 0% and an inhibition at 110 µM [2] of 0%.
